Test results as given in patent US8143273B2, “Quinolizidine and indolizidine derivatives” (Hoffman-La Roche Inc., priority 2010, dated 2012).

These molecules were tested against T1, mGlyT-1b (Mus musculus, UniProt P28571) (assay: Glycine uptake inhibition assay (mGlyT-1b)). Conditions: [3H]-glycine uptake in Flp-In CHO cells transfected with mGlyT-1b cDNA.
T1 construct: host or cells: Flp-In CHO
T1 sequence (P28571 1-651 isoform P28571-2): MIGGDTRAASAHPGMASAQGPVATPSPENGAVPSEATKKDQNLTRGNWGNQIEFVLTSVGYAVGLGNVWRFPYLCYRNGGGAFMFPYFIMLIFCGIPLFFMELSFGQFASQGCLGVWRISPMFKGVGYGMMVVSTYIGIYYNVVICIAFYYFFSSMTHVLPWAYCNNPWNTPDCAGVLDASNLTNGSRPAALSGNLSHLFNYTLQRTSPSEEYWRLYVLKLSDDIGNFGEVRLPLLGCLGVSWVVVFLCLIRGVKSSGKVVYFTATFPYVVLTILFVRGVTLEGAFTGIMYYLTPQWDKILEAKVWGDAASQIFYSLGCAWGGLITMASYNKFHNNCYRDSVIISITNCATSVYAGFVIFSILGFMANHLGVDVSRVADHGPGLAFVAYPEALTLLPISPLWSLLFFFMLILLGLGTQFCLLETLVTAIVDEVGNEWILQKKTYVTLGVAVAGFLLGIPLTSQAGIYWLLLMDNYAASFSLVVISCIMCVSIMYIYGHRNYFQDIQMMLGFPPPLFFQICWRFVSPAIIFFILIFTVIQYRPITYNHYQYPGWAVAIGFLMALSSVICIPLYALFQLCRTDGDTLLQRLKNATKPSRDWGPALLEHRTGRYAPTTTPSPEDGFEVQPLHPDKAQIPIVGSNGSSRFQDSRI
Type: cell-based
Protocol: DMEM complete medium: Nutrient mixture F-12 (Gibco Life-technologies), fetal bovine serum (FBS) 5%, (Gibco life technologies), Penicillin/Streptomycinl % (Gibco life technologies), Hygromycin 0.6 mg/ml (Gibco life technologies), Glutamine 1 mM Gibco life technologies)
Uptake buffer (UB): 150 mM NaCl, 10 mM Hepes-Tris, pH 7.4, 1 mM CaCl2, 2.5 mM KCl, 2.5 mM MgSO4, 10 mM (+) D-glucose.
Flp-In™ CHO (Invitrogen Cat no R758-07) cells stably transfected with mGlyTlb cDNA.
Glycine uptake inhibition assay (mGlyT-1b)
On day 1 mammalian cells, (Flp-In™ CHO), transfected with mGlyT-1b cDNA, were plated at the density of 40,000 cells/well in complete F-12 medium, without hygromycin in 96-well culture plates. On day 2, the medium was aspirated and the cells were washed twice with uptake buffer (UB). The cells were then incubated for 20 min at 22° C. with either (i) no potential competitor, (ii) 10 mM non-radioactive glycine, (iii) a concentration of a potential inhibitor. A range of concentrations of the potential inhibitor was used to generate data for calculating the concentration of inhibitor resulting in 50% of the effect (e.g. IC50, the concentration of the competitor inhibiting glycine uptake of 50%). A solution was then immediately added containing [^3H]-glycine 60 nM (11-16 Ci/mmol) and 25 μM non-radioactive glycine. The plates were incubated with gentle shaking and the reaction was stopped by aspiration of the mixture and washing (three times) with ice-cold UB. The cells were lysed with scintillation liquid, shaken 3 hours and the radioactivity in the cells was counted using a scintillation counter.

| Structure (SMILES) | IC50 |
| --- | --- |
| COc1cc(C(F)(F)F)cc(SC)c1C(=O)N[C@]1(c2ccccc2)CCCN2CCCC[C@@H]21 (racemic) [Example 1, 2-Methoxy-6-methylsulfanyl-N-((1S,R; 9aR,S)-1-phenyl-octahydro-quinolizin-1-yl)-4-trifluoromethyl-benzamide] | 0.08 µM |
| COc1cc(C(F)(F)F)cc(SC)c1C(=O)NC1(c2ccccc2)CCC2CCCN2C1 (single isomer, unassigned; diastereoisomer 2) [Example 4, 2-Methoxy-6-methylsulfanyl-N-(6-phenyl-octahydro-indolizin-6-yl)-4-trifluoromethyl-benzamide (diastereoisomer 2)] | 0.013 µM |
| COc1cc(C(F)(F)F)cc(SC)c1C(=O)NC1(c2ccccc2)CCC2CCCN2C1 (single isomer, unassigned; diastereoisomer 1) [Example 3, 2-Methoxy-6-methylsulfanyl-N-(6-phenyl-octahydro-indolizin-6-yl)-4-trifluoromethyl-benzamide (diastereoisomer 1)] | 0.017 µM |
| COc1cc(C(F)(F)F)cc(SC)c1C(=O)N[C@]1(c2ccccc2)CCCN2CCC[C@@H]21 (racemic) [Example 2, 2-Methoxy-6-methylsulfanyl-N-((8S,R; 8aR,S)-8-phenyl-octahydro-indolizin-8-yl)-4-trifluoromethyl-benzamide] | 0.025 µM |
| COc1cc(C(F)(F)F)cc(SC)c1C(=O)NC1(c2ccccc2)CCC2CCCCN2C1 (centres unmarked) [Example 5, 2-Methoxy-6-methylsulfanyl-N-(3-phenyl-octahydro-quinolizin-3-yl)-4-trifluoromethyl-benzamide] | 0.028 µM |
